The test system of assay [1] is HeLa Cells. Nature of the assay: GFP plasmid transfection with DOTMA/DOPE plus surface ligand peptide, fluorescent plate reader (Example 1). The class given is cell-based. As to conditions: DOTMA/DOPE + peptide linked to R12 or K16; EF1Alpha eGFP plasmid; 42 hours.
Assay [2] concerns NL-1 iPS Cells. The assay is described as above. The class given is cell-based. Conditions: DOTMA/DOPE + peptide linked to R12 or K16; EF1Alpha eGFP plasmid; 42 hours.
Assay [3] relates to Jurkat Cells. The assay is described as above. In kind it is cell-based. As to conditions: DOTMA/DOPE + peptide linked to R12 or K16; EF1Alpha eGFP plasmid; 42 hours. The essentials:
(§1)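 DOTMA/DOPE (1:1 molar) plus peptide bearing a poly-Arg or poly-Lys tag was complexed 10 min with EF1alpha eGFP plasmid in OptiMEM, then added to 70%-confluent cells (0.01 mL fibroblasts; 0.02 mL C2C12, Jurkat). After 42 h at 37 °C, GFP was read by plate reader and compared with DOTMA without ligand.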

Assay [4] concerns HuVec Cells. The assay is described as above. In kind it is cell-based. Conditions: DOTMA/DOPE + peptide linked to R12 or K16; EF1Alpha eGFP plasmid; 42 hours. Put shortly:
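HuVEC cells in 96 well plates at 70% confluence were transfected with EF1Alpha eGFP plasmid using a 1:1 molar DOTMA/DOPE lipid mixed with a surface ligand peptide carrying a covalently attached nucleic acid binding moiety. Complexes formed for 10 minutes, 0.01 mL went to each well, cells were incubated 42 hours at 37° C., and fluorescence was read on a plate reader.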

Assay [5] concerns Human Fibroblast Cells. Described as above. The class given is cell-based. As to conditions: DOTMA/DOPE + peptide linked to R12 or K16; EF1Alpha eGFP plasmid; 42 hours. The essentials: as §1
Assay [6] concerns some examined cell types. As to the kind of experiment: Summary of Example 1: transfection expression and % cells transfected over the no peptide control. The class given is cell-based. As to conditions: on some examined cell types. The essentials: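 Cells at 70% confluence received DNA complexes of EF1Alpha eGFP plasmid with DOTMA/DOPE (1:1) plus oligo-Arg- or oligo-Lys-tagged peptide ligands, formed 10 min at room temperature. After 42 h at 37 °C, 5% CO2, GFP read by plate reader and % transfected cells judged microscopically, relative to lipid without peptide.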

Assay [7] relates to C2C12 Cells. As to the kind of experiment: GFP plasmid transfection with DOTMA/DOPE plus surface ligand peptide, fluorescent plate reader (Example 1). In kind it is cell-based, mouse. Conditions: DOTMA/DOPE + peptide linked to R12 or K16; EF1Alpha eGFP plasmid; 42 hours. The essentials:
as §1

For assay [8], the system named is HeLa Cells. Nature of the assay: GFP transfection with DOTMA/SEQ ID NO: 72 (fusogenic peptide)/peptide compared with Lipofectamine 2000. In kind it is cell-based. The essentials:
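DOTMA/DOPE (1:1 molar) lipid mixed with polyarginine- or polylysine-tagged cell-surface-ligand peptide, complexed 10 min with EF1alpha eGFP plasmid at 10 μg/mL in OptiMEM, fusogenic peptide at 0.1 mg/mL final; HeLa cells ~70% confluent given 0.01 mL complex. GFP read by fluorescence plate reader and microscopy (% cells transfected) after 42 h at 37° C; Lipofectamine 2000 as comparator.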

[9] abbreviates: 0.1 μL of DOTMA/SEQ ID NO: 72/Peptide in well of a 96 well plate.
Where [10] appears, read: 0.2 μL of DOTMA/SEQ ID NO: 72/Peptide in well of a 96 well plate.
Where [11] appears, read: 0.3 μL of DOTMA/SEQ ID NO: 72/Peptide in well of a 96 well plate.
The mark [12] stands for this setting: 0.4 μL of DOTMA/SEQ ID NO: 72/Peptide in well of a 96 well plate.

377 (TAGSCLRRFSTM) [compound 377]: in assay [1], the “Relative Fluorescence of Transfection of HeLa Cells (RF)” value was found to be 15091. Also, in assay [2], the “Relative Fluorescence of Transfection of NL-1 iPS Cells (RF)” value was found to be 5474. Further, the “Relative Fluorescence of Transfection of Jurkat Cells (RF)” value in assay [3] turned out to be 6785. Further, in assay [4], the “Relative Fluorescence of Transfection of HuVec Cells (RF)” value is listed as 9326. In assay [5], the “Relative Fluorescence of Transfection of Human Fibroblast Cells (RF)” value is 6638. For the same substance, the “transfection expression and % cells transfected over the no peptide control” value in assay [6] is “increased transfection expression and the % cells transfected”. Also, the “Relative Fluorescence of Transfection of C2C12 Cells (RF)” value in assay [7] is given as 1710. Besides, the “Relative Fluorescence DOTMA/SEQ ID NO: 72/Peptide, HeLa Cells (RF)” value (“Relative Fluorescence DOTMA/SEQ ID NO” for short) in assay [8] (setting [9]) is given as 39115; in assay [8] (setting [10]), 40072; in assay [8] (setting [11]), 32914; in assay [8] (setting [12]) it was 22457.

237 (KNSFMALYLSKG) [compound 237]: the “Relative Fluorescence of Transfection of HeLa Cells (RF)” value in assay [1] was found to be 21288. The “Relative Fluorescence of Transfection of NL-1 iPS Cells (RF)” value in assay [2] is reported as 8632. The “Relative Fluorescence of Transfection of Jurkat Cells (RF)” value in assay [3] was 1501. Also, in assay [4], the “Relative Fluorescence of Transfection of HuVec Cells (RF)” value worked out at 2302. Moreover, the “Relative Fluorescence of Transfection of Human Fibroblast Cells (RF)” value in assay [5] worked out at 2184. Further, the “transfection expression and % cells transfected over the no peptide control” value in assay [6] was “increased transfection expression and the % cells transfected”. Moreover, the “Relative Fluorescence of Transfection of C2C12 Cells (RF)” value in assay [7] turned out to be 6491. In addition, the “Relative Fluorescence DOTMA/SEQ ID NO” value is listed as 8986 in assay [8] (setting [9]), 9753 in assay [8] (setting [10]), 8015 in assay [8] (setting [11]) and 8288 in assay [8] (setting [12]).

Consider 381 (TAGSCL) [compound 381], for which, in assay [1], the “Relative Fluorescence of Transfection of HeLa Cells (RF)” value is recorded as 22652. Further, the “Relative Fluorescence of Transfection of NL-1 iPS Cells (RF)” value in assay [2] amounted to 9644. Besides, the “Relative Fluorescence of Transfection of Jurkat Cells (RF)” value in assay [3] was 10806. The “Relative Fluorescence of Transfection of HuVec Cells (RF)” value in assay [4] worked out at 17542. The “Relative Fluorescence of Transfection of Human Fibroblast Cells (RF)” value in assay [5] came out at 9953. For the same substance, in assay [6], the “transfection expression and % cells transfected over the no peptide control” value was “increased transfection expression and the % cells transfected”. The “Relative Fluorescence of Transfection of C2C12 Cells (RF)” value in assay [7] is on record as 8834. In addition, the “Relative Fluorescence DOTMA/SEQ ID NO” value was 34187 in assay [8] (setting [9]), 37463 in assay [8] (setting [10]), 27007 in assay [8] (setting [11]) and 20088 in assay [8] (setting [12]).

In the case of “358 (GHRGPTGRPGKRGKQGQKGDS) [compound 358]”, in assay [1], the “Relative Fluorescence of Transfection of HeLa Cells (RF)” value was found to be 15132. Besides, in assay [2], the “Relative Fluorescence of Transfection of NL-1 iPS Cells (RF)” value amounted to 21956. Besides, in assay [3], the “Relative Fluorescence of Transfection of Jurkat Cells (RF)” value is given as 18820. For the same substance, in assay [4], the “Relative Fluorescence of Transfection of HuVec Cells (RF)” value amounted to 25398. Moreover, in assay [5], the “Relative Fluorescence of Transfection of Human Fibroblast Cells (RF)” value came out at 5665. In addition, in assay [6], the “transfection expression and % cells transfected over the no peptide control” value was “increased transfection expression and the % cells transfected”. The “Relative Fluorescence of Transfection of C2C12 Cells (RF)” value in assay [7] was 2271. Further, the “Relative Fluorescence DOTMA/SEQ ID NO” value came out at 12331 in assay [8] (setting [9]), 12683 in assay [8] (setting [10]), 13686 in assay [8] (setting [11]) and 11097 in assay [8] (setting [12]).

For the origin of these results see patent US20250154525A1, “PLANT VIRUS MOVEMENT PROTEINS AND METHODS OF USING SAME” (Molecular Transfer, Inc., priority 2016, published 2025).
